pIC50, pKi: −log10 of the molar value. Where “and” joins values, the source holds several entries; their conditions need not be identical. Equal values may be shown once. Entries after “also recorded” stand apart in the source; their conditions may differ.

In one test the test system is chitotriosidase. In words: chitotriosidase secretion by cultured macrophages. The test is classed as cell-based, human.
Test [1] concerns the target T1, glucosylceramide synthase (Homo sapiens, UniProt Q16739).
T1 sequence (Q16739 1-394): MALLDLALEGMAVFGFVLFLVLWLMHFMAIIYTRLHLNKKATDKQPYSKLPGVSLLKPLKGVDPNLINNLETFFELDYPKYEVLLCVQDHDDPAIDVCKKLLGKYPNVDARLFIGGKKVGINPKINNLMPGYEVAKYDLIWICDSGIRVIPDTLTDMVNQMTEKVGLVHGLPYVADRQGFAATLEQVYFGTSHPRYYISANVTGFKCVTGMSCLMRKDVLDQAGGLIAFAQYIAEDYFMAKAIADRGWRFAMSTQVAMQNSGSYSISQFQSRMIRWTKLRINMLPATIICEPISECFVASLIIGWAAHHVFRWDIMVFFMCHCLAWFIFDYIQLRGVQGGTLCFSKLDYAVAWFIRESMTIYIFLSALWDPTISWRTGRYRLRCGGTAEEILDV
Briefly: glucosylceramide synthase activity in cultured macrophages with C6-NBD ceramide. The test is classed as cell-based. Also noted: glucosylceramide synthase activity in cultured macrophages was also determined; endogenous in cells; host or cells: cultured human macrophages. The settings on record: presence of PDMP or PPMP.

The target of another test is T2, glycogen synthase (Rattus norvegicus, UniProt P17625).
T2 construct: endogenous in cells; host or cells: rat hepatocytes
T2 sequence (P17625 1-704): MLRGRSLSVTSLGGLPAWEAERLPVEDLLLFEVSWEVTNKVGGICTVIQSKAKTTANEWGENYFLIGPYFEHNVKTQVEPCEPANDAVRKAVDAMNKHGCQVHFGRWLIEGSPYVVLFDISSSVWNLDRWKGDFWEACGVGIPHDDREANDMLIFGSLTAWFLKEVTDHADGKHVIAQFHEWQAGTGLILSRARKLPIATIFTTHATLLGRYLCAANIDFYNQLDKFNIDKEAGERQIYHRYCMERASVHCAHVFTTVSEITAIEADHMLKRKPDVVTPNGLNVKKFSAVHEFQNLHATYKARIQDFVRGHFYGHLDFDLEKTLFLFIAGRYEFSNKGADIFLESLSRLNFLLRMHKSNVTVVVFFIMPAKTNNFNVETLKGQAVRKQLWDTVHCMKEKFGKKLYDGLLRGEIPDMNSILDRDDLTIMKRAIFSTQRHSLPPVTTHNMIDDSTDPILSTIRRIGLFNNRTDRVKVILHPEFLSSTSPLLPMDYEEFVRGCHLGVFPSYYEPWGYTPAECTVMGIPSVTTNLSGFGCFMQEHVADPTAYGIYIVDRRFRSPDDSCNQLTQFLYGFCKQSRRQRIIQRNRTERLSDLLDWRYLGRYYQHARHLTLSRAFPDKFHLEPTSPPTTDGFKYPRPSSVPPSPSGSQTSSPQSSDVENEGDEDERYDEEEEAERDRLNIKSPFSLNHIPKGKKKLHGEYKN
Briefly: glycogen synthase in rat hepatocytes. The settings on record: at IC50 concentration for glucosylceramidase. The test is classed as cell-based.

Test [2] addresses T3, lysosomal a-glucosidase (Homo sapiens, UniProt P10253). In words: lysosomal a-glucosidase in cultured melanoma cells. Type of test: cell-based. Also on record: endogenous in cells. The settings on record: at IC50 concentration for glucosylceramidase.
The target of test [3] is T4, glucosylceramidase (Homo sapiens, UniProt Q9HCG7).
T4 sequence (Q9HCG7 1-927): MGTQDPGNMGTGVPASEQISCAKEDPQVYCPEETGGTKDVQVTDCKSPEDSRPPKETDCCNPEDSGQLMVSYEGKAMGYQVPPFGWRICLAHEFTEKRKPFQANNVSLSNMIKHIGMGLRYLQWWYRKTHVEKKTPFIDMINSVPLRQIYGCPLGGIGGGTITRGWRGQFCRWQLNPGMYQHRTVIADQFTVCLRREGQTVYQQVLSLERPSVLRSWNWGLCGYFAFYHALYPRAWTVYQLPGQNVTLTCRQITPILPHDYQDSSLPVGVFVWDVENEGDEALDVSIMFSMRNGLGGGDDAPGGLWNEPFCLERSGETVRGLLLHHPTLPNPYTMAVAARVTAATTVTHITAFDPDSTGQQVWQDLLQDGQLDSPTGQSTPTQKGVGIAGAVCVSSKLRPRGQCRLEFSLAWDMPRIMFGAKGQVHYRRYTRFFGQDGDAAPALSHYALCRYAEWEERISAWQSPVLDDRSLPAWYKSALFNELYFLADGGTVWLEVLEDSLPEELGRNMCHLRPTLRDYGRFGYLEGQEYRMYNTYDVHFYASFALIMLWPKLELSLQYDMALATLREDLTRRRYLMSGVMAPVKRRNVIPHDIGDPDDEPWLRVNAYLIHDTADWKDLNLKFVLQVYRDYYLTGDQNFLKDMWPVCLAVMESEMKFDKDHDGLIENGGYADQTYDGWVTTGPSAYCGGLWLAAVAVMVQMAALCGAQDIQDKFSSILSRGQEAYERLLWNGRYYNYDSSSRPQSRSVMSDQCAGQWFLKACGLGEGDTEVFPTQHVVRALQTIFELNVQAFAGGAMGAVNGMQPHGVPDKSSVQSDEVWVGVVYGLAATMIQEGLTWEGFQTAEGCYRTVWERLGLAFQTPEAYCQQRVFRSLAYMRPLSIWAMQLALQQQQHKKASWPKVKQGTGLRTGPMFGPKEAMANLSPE
In words: glucosylceramidase activity in intact melanoma cells (4MU-b-glucoside, conduritol B-epoxide insensitive). Type of test: cell-based. Also on record: endogenous in cells. The settings on record: IC50 GLUCOSYLCERAMIDASE

For test [4], the target named is T1, glucosylceramide synthase. Briefly: glucosylceramide synthase activity in cultured melanoma cells. The settings on record: at IC50 concentration for glucosylceramidase. The test is classed as cell-based.
The target in test [5] is T5, glucocerebrosidase (Ceredase) (Homo sapiens, UniProt P04062).
T5 construct: purchased Genzyme Corp. Boston,USA; host or cells: human placenta
T5 sequence (P04062 40-536): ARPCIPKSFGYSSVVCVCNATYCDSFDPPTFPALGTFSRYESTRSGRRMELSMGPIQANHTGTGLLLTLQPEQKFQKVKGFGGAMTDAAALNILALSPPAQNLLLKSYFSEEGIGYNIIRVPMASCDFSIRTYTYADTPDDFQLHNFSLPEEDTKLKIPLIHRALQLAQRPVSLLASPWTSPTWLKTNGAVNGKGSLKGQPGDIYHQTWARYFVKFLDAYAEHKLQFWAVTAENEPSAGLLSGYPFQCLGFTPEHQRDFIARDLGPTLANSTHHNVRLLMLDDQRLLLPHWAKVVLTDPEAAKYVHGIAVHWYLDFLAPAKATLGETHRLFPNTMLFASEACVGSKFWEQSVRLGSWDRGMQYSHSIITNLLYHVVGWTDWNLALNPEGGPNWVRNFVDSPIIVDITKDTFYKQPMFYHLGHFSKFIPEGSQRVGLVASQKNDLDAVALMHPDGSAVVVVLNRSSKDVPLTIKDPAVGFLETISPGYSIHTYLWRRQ
Briefly: activity of soluble human placental glucocerebrosidase (Ceredase) towards 4MU-b-glucoside. Type of test: biochemical.

The target of test [6] is T6, glucocerebrosidase (Homo sapiens, UniProt P04062).
T6 sequence (P04062 40-536): T5 sequence (P04062 40-536)
Briefly: glucocerebrosidase activity in intact melanoma cells (4MU-b-glucoside, conduritol B-epoxide sensitive). The test is classed as cell-based. Also noted: the hydrolysis of 4MU-b-glucoside by cultured melanoma cells; endogenous in cells.

For test [7], the target named is T6, glucocerebrosidase. Briefly: conduritol B-epoxide inhibitable glucocerebrosidase activity in membrane fraction from human spleen. Type of test: biochemical.
The target in test [8] is T3, lysosomal a-glucosidase. In words: purified lysosomal a-glucosidase activity towards 4MU-a-glucoside. Type of test: biochemical. The settings on record: 4MU-a-glucoside, pH 4.0; read-out: apparent Ki A-GLUCOSIDASE
In test [9] the target is T4, glucosylceramidase. Briefly: glucosylceramidase activity towards 4MU-b-glucoside in conduritol B-epoxide pre-treated membrane suspension from human spleen.

As to `CCCCCCCCCCCCCCCC(=O)NC(CN1CCOCC1)C(O)c1ccccc1` (centres unmarked) [PPMP, 1-phenyl-2-hexadecanoylamino-3-morpholino-1-propanol], the “effect on chitotriosidase secretion” value in the test with chitotriosidase (cultured macrophages, glucosylceramide synthase inhibited) is listed as “does not result in reduced; also recorded: without effect”. The “inhibition of glucosylceramide synthase activity” value in test [1] was “potently”.
As to `OCC1C(O)C(O)C(O)CN1CCCCCOCC12CC3CC(CC(C3)C1)C2` (centres unmarked) [P21, N-(5-adamantane-1-yl-methoxy-pentyl) deoxynojirimycin], the activity at 2.5 pM in the test on chitotriosidase (Homo sapiens, Macrophage, 96 h, 0.0025 nM, 4 days, relative to no inhibitor (100%)) was determined as 105%. The activity at 50 pM in the test on chitotriosidase (Homo sapiens, Macrophage, 96 h, 0.05 nM, 4 days, relative to no inhibitor (100%)) was 72%. Besides, in the test with chitotriosidase (Homo sapiens, Macrophage, 96 h, 1 nM, 4 days, relative to no inhibitor (100%)), the activity at 0.001 µM was 64%. Besides, the “inhibition of glycogen synthase” value against glycogen synthase is “no inhibition”. The “inhibition of lysosomal a-glucosidase” value against lysosomal a-glucosidase [2] is “no inhibition”.
As a reminder, the pIC50 is the IC50 on a negative log10 scale, so that one unit is a factor of ten. By pKi is commonly meant the Ki on a negative log10 scale, so that one unit is a factor of ten. As to `CC(C)CCC[C@@H](C)[C@H]1CC[C@H]2[C@@H]3CC=C4C[C@@H](OCCCCCN5C[C@H](O)[C@@H](O)[C@H](O)[C@H]5CO)CC[C@]4(C)[C@H]3CC[C@]12C` [P24, N-(5-cholesteroloxy-pentyl)-deoxynojirimycin], the pIC50 on glucosylceramidase [3] was 7.30 and ~7.30; in [5], 6.10; against glucocerebrosidase [6] it was 6.10; at glucocerebrosidase [7], 6.15; at glucosylceramidase [9] it was 7.00. In addition, the “inhibition of glucosylceramide synthase activity” value in test [4] was “no inhibition”. Further, the pKi in test [5] (soluble enzyme, 0.25% sodium taurocholate, 0.1% Triton X-100, pH 5.2, read-out: apparent Ki GLUCOCEREBROSIDASE CEREDASE) is 6.02; at glucocerebrosidase [7] (membrane suspension, 4MU-b-glucoside, pH 5.2, read-out: apparent Ki GLUCOCEREBROSIDASE MEMBRANES), 6.11; at lysosomal a-glucosidase [8], 5.14; on glucosylceramidase [9], 7.01. Moreover, the “inhibition of glucocerebrosidase activity” value against glucocerebrosidase [6] (melanoma cells, at IC50 for glucosylceramidase or ten-fold higher concentrations) is “no significant inhibition”. Also, at glycogen synthase, the “inhibition of glycogen synthase” value is recorded as “no inhibition”. Moreover, on lysosomal a-glucosidase [2], the “inhibition of lysosomal a-glucosidase” value was “no inhibition”.

The record behind these values is patent US6177447A (Universiteit van Amsterdam, priority 1996, dated 2001).
